In patent publication US9579384B2, “Method of treating bendamustine-responsive conditions in patients requiring reduced volumes for administration” (Eagle Pharmaceuticals, Inc., priority 2012, dated 2017):
Where a name gives a salt, the structure may show the parent alone.

Experiments:
[1] = Measured solubility of bendamustine HCl in the diluent/solubilizer combination at room temperature; assay type: physicochemical; conditions: aqueous with cosolvent or surfactant or cyclodextrin
Description: The solubility of the diluent/solubilizer combination far exceeded the bendamustine concentration, thus assuring the avoidance of precipitated drug prior to or during administration. As will be appreciated by those of ordinary skill, as the concentration of solubilizers increases with respect to the total volume in small administration doses, the solubility of the bendamustine is maintained.
Bendamustine formulations containing the above ingredients are capable of delivering approximately 360 mg of the drug as the HCl salt in volumes of pharmaceutically acceptable diluent ranging from about 120 ml down to about 15 ml.

[2] = Observation of precipitation in the IV fluid during administration to patient; assay type: physicochemical
Description: In this example, a patient diagnosed with chronic lymphocytic leukemia (CLL) and having chronic kidney disease (GFR<30 ml/min/1.73 m^2) is begun on a treatment protocol with bendamustine. In particular, the patient is administered 360 mg of bendamustine as part of an approximately 114.4 ml infusion on days 1 and 2 of a 28 day cycle. The intravenous formulation is prepared by drawing up 14.4 ml of an RTU (ready to use) liquid containing bendamustine HCl 25 mg/ml, PG 103.2 mg/ml, PEG 1013.4 mg/ml, monothioglycerol 5 mg/ml and 0.08 mg/ml NaOH and mixing it into a 100 ml bag containing 0.9% NaCl. The final bendamustine concentration for the IV fluid is 3.15 mg/ml. The infusion is administered to the patient in less than 15 minutes.
The process of Example 1 is repeated except that the IV infusion volume is approximately 64.4 ml. The same 14.4 ml of an RTU (ready to use) liquid containing bendamustine HCl 25 mg/ml, PG 103.2 mg/ml, PEG 1013.4 mg/ml, monothioglycerol 5 mg/ml and 0.08 mg/ml NaOH is used and it is mixed into a 50 ml bag containing 0.9% NaCl. The final bendamustine concentration for the IV fluid is 5.59 mg/ml. The infusion is administered to the patient in less than 10 minutes.

## Cn1c(CCCC(=O)O)nc2cc(N(CCCl)CCCl)ccc21 [bendamustine HCl, Bendamustine HCl]
[1]; half normal saline/dextrose diluent/solubilizer combination, 50 ml half normal saline/dextrose + 1 ml of 25 mg/ml bendamustine HCl and solubilizers (PG, PEG 400)
  solubility: 14.2 mg/mL
[1]; normal saline diluent/solubilizer combination, 50 ml normal saline + 1 ml of 25 mg/ml bendamustine HCl and solubilizers (PG, PEG 400)
  solubility: 10.5 mg/mL
[2]; 14.4 ml RTU liquid (25 mg/ml) in 50 ml 0.9% NaCl, final 5.59 mg/ml, infusion in less than 10 minutes
  precipitation of bendamustine in the IV fluid during administration: No precipitated bendamustine is observed
[2]; 14.4 ml RTU liquid (25 mg/ml) in 100 ml 0.9% NaCl, final 3.15 mg/ml, infusion in less than 15 minutes
  precipitation of bendamustine in the IV fluid during administration: No precipitated bendamustine is observed
